Experimental data reported in ChEMBL document CHEMBL4219030, “Progress in the discovery of small molecule modulators of the Cys-loop superfamily receptors” (Bioorg Med Chem Lett, 2017).

How the values were obtained:
[1] = target: T1, Glycine receptor subunit alpha-1 (Homo sapiens) (UniProt P23415); assay: Positive allosteric modulation of human glycine receptor alpha1 expressed in HEK293 cells assessed as potentiation of glycine-induced current response at 10 uM measure for 3 to 6 secs by whole cell patch-clamp method relative to glycine; format: cell-based
T1 sequence (whole entry): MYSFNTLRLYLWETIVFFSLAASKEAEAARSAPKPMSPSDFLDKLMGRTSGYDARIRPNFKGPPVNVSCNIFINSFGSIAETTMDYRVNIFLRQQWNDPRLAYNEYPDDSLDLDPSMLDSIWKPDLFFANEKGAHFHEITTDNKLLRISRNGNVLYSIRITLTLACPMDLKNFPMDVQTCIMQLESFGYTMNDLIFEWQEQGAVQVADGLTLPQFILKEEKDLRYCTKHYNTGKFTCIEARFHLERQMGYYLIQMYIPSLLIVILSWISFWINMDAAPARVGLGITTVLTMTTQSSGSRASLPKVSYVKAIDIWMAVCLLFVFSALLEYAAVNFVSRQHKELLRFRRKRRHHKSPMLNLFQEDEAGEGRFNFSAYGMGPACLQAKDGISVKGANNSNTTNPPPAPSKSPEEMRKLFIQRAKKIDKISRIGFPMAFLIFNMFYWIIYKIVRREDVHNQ

[2] = target: Neuronal acetylcholine receptor subunit alpha-7 (Homo sapiens, UniProt P36544); assay: Inhibition of human alpha7 nAChR expressed in Xenopus oocytes at -80 mV holding potential by electro-physiological analysis; format: cell-based
Neuronal acetylcholine receptor subunit alpha-7 (Homo sapiens, UniProt P36544), sequence (P36544 whole entry): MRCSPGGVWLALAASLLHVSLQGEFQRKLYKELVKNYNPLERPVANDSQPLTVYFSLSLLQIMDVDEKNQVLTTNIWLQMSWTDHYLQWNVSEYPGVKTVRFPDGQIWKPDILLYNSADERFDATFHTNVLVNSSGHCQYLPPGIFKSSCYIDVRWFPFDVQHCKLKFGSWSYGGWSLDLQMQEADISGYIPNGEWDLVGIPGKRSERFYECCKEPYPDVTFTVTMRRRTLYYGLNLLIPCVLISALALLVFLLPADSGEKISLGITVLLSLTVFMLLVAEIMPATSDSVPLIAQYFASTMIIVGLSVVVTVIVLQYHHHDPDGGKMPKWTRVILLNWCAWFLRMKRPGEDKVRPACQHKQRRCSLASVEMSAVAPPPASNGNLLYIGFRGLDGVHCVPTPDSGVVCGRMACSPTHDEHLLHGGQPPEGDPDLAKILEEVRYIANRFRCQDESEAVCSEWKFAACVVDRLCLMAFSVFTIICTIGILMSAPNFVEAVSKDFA

[3] = target: T2, 5-hydroxytryptamine receptor 3A (Homo sapiens, UniProt P46098); assay: Antagonist activity at 5-HT3A receptor (unknown origin) assessed as inhibition of serotonin-induced peak currents
T2 sequence (P46098 whole entry): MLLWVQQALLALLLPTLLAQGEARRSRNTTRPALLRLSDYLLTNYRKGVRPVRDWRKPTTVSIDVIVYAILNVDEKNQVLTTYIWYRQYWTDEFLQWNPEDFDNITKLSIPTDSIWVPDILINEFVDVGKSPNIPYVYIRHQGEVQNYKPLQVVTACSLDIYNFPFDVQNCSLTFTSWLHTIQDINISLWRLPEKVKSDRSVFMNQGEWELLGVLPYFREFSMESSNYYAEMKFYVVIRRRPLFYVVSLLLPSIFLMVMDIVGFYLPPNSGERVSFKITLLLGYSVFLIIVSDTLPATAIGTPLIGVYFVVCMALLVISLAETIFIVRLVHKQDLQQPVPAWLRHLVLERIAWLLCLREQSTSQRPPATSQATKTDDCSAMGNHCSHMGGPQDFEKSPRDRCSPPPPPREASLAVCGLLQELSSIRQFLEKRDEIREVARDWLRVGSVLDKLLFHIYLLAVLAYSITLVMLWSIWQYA

[4] = target: T2, 5-hydroxytryptamine receptor 3A; assay: Agonist activity at human […] receptor expressed in Xenopus laevis oocytes; format: cell-based
[5] = target: T3, Serotonin 3 (5-HT3) receptor (Homo sapiens, UniProt O95264+P46098); assay: Agonist activity at human […] receptor expressed in Xenopus laevis oocytes; format: cell-based
T3 sequence (P46098 whole entry): T2 sequence (P46098 whole entry)
T3 sequence (O95264 whole entry): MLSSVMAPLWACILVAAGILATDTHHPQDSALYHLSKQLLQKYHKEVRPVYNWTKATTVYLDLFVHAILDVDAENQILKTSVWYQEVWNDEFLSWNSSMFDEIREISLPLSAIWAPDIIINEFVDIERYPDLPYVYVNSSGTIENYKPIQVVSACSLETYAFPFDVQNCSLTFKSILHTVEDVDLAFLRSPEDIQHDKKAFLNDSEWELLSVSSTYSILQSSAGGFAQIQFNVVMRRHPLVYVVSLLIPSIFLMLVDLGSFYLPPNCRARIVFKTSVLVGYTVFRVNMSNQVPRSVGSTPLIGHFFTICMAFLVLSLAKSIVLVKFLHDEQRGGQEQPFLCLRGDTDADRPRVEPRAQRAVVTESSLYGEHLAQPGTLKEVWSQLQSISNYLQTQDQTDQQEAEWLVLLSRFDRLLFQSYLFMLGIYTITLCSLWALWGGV

[6] = target: Neuronal acetylcholine receptor; alpha3/beta2 (Homo sapiens) (UniProt P17787+P32297); assay: Positive allosteric modulation of human alpha3beta2 nAChR expressed Xenopus oocytes at 3 uM relative to acetylcholine; format: protein-complex assay
[7] = target: T4, 5-hydroxytryptamine receptor 3A (Cavia porcellus, UniProt O70212); assay: Antagonist activity 5-HT3A receptor in guinea pig ileum assessed as inhibition of 2-methyl-5-HT induced response preincubated for 10 mins followed by agonist addition; details: read-out: pA2 (converted)
T4 sequence (O70212 whole entry): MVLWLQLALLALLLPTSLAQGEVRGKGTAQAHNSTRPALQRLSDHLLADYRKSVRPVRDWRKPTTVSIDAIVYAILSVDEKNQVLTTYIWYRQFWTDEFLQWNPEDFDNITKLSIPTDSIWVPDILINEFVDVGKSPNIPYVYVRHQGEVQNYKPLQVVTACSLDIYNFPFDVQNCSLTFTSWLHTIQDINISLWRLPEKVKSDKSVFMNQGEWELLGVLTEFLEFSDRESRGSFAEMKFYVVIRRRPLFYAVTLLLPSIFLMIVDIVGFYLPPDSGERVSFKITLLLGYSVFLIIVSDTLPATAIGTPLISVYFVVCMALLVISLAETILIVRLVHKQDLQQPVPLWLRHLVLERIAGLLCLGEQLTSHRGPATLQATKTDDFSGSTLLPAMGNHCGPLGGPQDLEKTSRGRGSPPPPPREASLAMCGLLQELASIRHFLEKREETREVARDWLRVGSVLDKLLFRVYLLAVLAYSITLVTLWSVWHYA

[8] = target: T2, 5-hydroxytryptamine receptor 3A; assay: Inhibition of human 5-HT3A receptor expressed in […] cells after 30 mins by Fluo-4-AM dye based FLIPR assay; format: cell-based
[9] = target: T3, Serotonin 3 (5-HT3) receptor; assay: Inhibition of human 5-HT3AB receptor expressed in […] cells after 30 mins by Fluo-4-AM dye based FLIPR assay; format: cell-based
[10] = target: 5-hydroxytryptamine receptor 3A/3C (Homo sapiens, UniProt P46098+Q8WXA8); assay: Inhibition of human 5-HT3AC receptor expressed in […] cells after 30 mins by Fluo-4-AM dye based FLIPR assay; format: cell-based
5-hydroxytryptamine receptor 3A/3C, sequence (Q8WXA8 whole entry, one chain of several): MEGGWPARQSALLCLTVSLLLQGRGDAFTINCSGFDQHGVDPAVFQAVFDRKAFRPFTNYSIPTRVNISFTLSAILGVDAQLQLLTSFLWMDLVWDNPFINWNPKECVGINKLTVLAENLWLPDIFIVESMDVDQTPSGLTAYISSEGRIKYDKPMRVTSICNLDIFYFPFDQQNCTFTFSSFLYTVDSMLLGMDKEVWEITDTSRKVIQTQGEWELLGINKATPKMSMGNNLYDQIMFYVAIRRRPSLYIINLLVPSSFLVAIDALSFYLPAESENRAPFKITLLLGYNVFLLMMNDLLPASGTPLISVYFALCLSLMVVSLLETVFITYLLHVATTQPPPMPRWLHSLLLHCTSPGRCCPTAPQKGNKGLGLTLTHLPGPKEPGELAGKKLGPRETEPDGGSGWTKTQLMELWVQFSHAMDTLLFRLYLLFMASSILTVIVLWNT

[11] = target: 5-hydroxytryptamine receptor 3A/3E (Homo sapiens, UniProt A5X5Y0+P46098); assay: Inhibition of human 5-HT3AE receptor expressed in […] cells after 30 mins by Fluo-4-AM dye based FLIPR assay; format: cell-based
5-hydroxytryptamine receptor 3A/3E, sequence (A5X5Y0 whole entry, one chain of several): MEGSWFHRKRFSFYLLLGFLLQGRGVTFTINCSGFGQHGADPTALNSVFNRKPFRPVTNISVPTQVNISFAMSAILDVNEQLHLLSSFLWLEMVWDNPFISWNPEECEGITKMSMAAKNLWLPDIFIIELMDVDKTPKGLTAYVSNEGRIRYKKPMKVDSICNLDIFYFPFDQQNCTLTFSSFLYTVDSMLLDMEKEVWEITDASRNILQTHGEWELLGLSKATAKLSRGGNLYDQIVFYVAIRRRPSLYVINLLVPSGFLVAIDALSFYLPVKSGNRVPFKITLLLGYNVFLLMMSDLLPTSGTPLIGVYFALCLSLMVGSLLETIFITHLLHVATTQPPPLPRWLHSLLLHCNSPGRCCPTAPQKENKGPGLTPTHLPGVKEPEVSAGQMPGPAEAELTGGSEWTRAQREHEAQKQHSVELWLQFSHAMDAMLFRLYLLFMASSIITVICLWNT

[12] = target: T2, 5-hydroxytryptamine receptor 3A; assay: Inhibition of recombinant human 5-HT3A receptor expressed in HEK293 cell membranes […] in presence of [3H]GR65630
[13] = target: Neuronal acetylcholine receptor subunit alpha-7 (Rattus norvegicus, UniProt Q05941); assay: Agonist activity at rat brain membrane alpha7 nAChR
Neuronal acetylcholine receptor subunit alpha-7 (Rattus norvegicus, UniProt Q05941), sequence (Q05941 whole entry): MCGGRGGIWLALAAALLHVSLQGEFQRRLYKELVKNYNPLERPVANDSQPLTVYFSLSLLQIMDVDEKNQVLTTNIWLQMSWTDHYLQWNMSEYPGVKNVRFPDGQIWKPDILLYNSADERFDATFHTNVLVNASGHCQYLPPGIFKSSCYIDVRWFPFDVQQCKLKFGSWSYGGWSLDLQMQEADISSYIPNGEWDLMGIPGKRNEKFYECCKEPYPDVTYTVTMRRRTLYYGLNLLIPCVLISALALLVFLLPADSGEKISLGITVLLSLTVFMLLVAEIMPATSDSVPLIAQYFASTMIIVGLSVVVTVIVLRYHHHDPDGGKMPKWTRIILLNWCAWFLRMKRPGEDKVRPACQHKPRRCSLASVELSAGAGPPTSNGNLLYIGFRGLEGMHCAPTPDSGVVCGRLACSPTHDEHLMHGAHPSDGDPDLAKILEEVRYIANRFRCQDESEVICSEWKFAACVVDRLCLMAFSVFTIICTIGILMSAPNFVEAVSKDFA

In the case of `CCCCCc1ccc2c(c1)OC(C)(C)[C@@H]1CCC(C)=C[C@@H]21`, the fold change (FC) [1] is reported as 30.
Work on `C#CCNc1nc(NCCCCC2CCN(Cc3ccccc3)CC2)c(C#N)cc1C#N` yielded an IC50 [2] of 320 nM and an IC50 [3] of 1400 nM.
`N=C(N)NC(=N)Nc1cccc(Cl)c1` showed an EC50 [4] of 3800 nM and an EC50 [5] of 2800 nM.
With `Clc1ccccc1CN[C@@H]1CN2CCC1CC2` the fold change (FC) [6] was 3.
In the case of `COc1nc2ccccc2nc1C(=O)Nc1nc2ccccc2s1`, the Kb [7] is reported as 39.8 nM.
`CCCCNC(=O)c1nc2ccccc2nc1OC` showed a Kb [7] of 20 nM.
Compound `c1ccc2c(CSc3[nH]cnc4ncnc3-4)cccc2c1` has an IC50 [8] of 620 nM, an IC50 [9] of 430 nM and an IC50 [10] of 840 nM. It also gave an IC50 [11] of 710 nM.
Compound `O=C(N[C@H]1CN2CCC1CC2)c1ccc2ncccc2c1` has an IC50 [12] of 150 nM and an IC50 [13] of 10000 nM.
